Test results as given in patent publication US6419907B1, “Use of cupric complex of 3,5-disopropylsalicylic acid by way of a cosmetic product and cosmetic compositions containing this compound for protecting the human epidermis against UV radiation” (L'Oreal, priority 1987, dated 2002).

System: skin
Test: application on the skin against injuries caused by solar/UV radiation
Type: in vivo
Details: persists in the presence of sunscreens

CC(C)c1cc2c(c(C(C)C)c1)[O][Cu]1([O]C2=O)[O]C(=O)c2cc(C(C)C)cc(C(C)C)c2[O]1 [copper (II) bis(3,5-diisopropylsalicylate)]
intensity of the solar erythema: reduced
number of degraded keratinocytes: reduced
